Results on 17 compounds are retold here after PubChem BioAssay (NCI).

Some test systems named below: HCT-15 colon; DU-145 prostate; CCRF-CEM leukemia; SF-268 CNS; SF-539 CNS; UACC-257 melanoma; HCC-2998 colon; 786-0 renal.
Common to all, as to experiment: NCI tumour cell line growth inhibition, 48 h

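48-hour exposure; five concentrations; linearly interpolated endpoints. The concentration for full growth arrest is given as TGI.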

For `Brc1ccc(CCNCCN2CCCCC2)cc1`, the TGI in the assay with HCT-15 colon was 33.6 µM; in the assay with DU-145 prostate, above 100 µM; in the assay on CCRF-CEM leukemia, above 100 µM; with SF-268 CNS, 33.3 µM; with SF-539 CNS, 23.3 µM; with UACC-257 melanoma it was 28.3 µM. Besides, the results for the TGI with HCC-2998 colon and in the assay on 786-0 renal were 27.7 µM and 27.5 µM, respectively.

Take `OCCCCCNc1c2ccccc2nc2ccccc12`: the TGI in the assay on HCT-15 colon is 13.9 µM; in the assay with DU-145 prostate, 25.3 µM; with CCRF-CEM leukemia, above 61.7 µM; in the assay on SF-268 CNS, 11.4 µM; with SF-539 CNS it was 9.05 µM; in the assay on UACC-257 melanoma it was 4.77 µM. Further, the TGI in the assay with HCC-2998 colon worked out at 3.36 µM; with 786-0 renal it was 12.9 µM.

Take `CN(CCC#N)c1ccc(/C=C2\SC(=S)NC2=O)cc1`: the TGI with HCT-15 colon, with DU-145 prostate, in the assay on CCRF-CEM leukemia, in the assay on SF-268 CNS, in the assay with SF-539 CNS and in the assay with UACC-257 melanoma was above 100 µM each time. Also, the TGI in the assay with HCC-2998 colon and in the assay on 786-0 renal was above 100 µM each time.

As for `O=C(CN1c2ccccc2Sc2ccccc21)N1CCNCC1`, the TGI in the assay with HCT-15 colon, in the assay with DU-145 prostate, in the assay on CCRF-CEM leukemia, in the assay on SF-268 CNS, in the assay on SF-539 CNS and with UACC-257 melanoma was above 100 µM throughout. Besides, in the assay with 786-0 renal, the TGI was above 100 µM.

As for `C[C@@]12[C@H]3CC[C@@H]1[C@H](O)C(=O)N2CC3`, the TGI in the assay on HCT-15 colon, with DU-145 prostate, with CCRF-CEM leukemia, in the assay with SF-268 CNS, in the assay on SF-539 CNS and with UACC-257 melanoma was above 100 µM each time. For the same compound, the TGI with HCC-2998 colon and in the assay with 786-0 renal was above 100 µM throughout.

Regarding `COc1cc2c(cc1OC)C1=Cc3cc(OC)c(OC)cc3C(C)N1C=C2` (stereo unspecified), the TGI in the assay on HCT-15 colon, with DU-145 prostate, in the assay with CCRF-CEM leukemia, in the assay on SF-268 CNS, in the assay on SF-539 CNS and in the assay on UACC-257 melanoma was above 100 µM throughout. For the same compound, the TGI with HCC-2998 colon and in the assay on 786-0 renal was above 100 µM each time.

Regarding `CCOP(=O)(OCC)/C(C#N)=C/c1cnc(-c2ccccc2)[nH]1`, the TGI in the assay with HCT-15 colon, with DU-145 prostate, in the assay on CCRF-CEM leukemia, with SF-268 CNS, with SF-539 CNS and in the assay with UACC-257 melanoma was above 100 µM throughout. Besides, the TGI with HCC-2998 colon and in the assay on 786-0 renal was above 100 µM in each case.

With `COc1ccc(N2C(=O)C3c4[nH]c5ccc(OCc6ccccc6)cc5c4C4CCC(C(C)(C)C)CC4C3C2=O)cc1` (stereo unspecified), the TGI in the assay with HCT-15 colon, in the assay with DU-145 prostate, in the assay on SF-268 CNS, with SF-539 CNS, in the assay with UACC-257 melanoma and with HCC-2998 colon was above 100 µM throughout. In the assay on 786-0 renal, this compound registered a TGI of 81.8 µM.

Consider `CC1(C)OCC(COC(=O)C=[N+]=[N-])O1` (stereo unspecified), for which the TGI in the assay on HCT-15 colon, in the assay with DU-145 prostate, with CCRF-CEM leukemia, with SF-268 CNS, in the assay on UACC-257 melanoma and with HCC-2998 colon was above 100 µM in each case. The compound also showed a TGI with 786-0 renal above 100 µM.

As to `CC(=O)OCC(C)C1=C(O)C(=O)C2(C)C/C=C(/C)CC/C=C(\C)CCC(O)C(C)CCC12` (stereo unspecified), the TGI is 36.2 µM with HCT-15 colon; 31.7 µM with DU-145 prostate; 70.9 µM with CCRF-CEM leukemia; 35.4 µM in the assay with SF-268 CNS; 31 µM with SF-539 CNS; 33.6 µM in the assay on UACC-257 melanoma. In addition, the TGI in the assay on 786-0 renal turned out to be 32 µM.

For `CCN(CC)CCc1c2c(nc3ccccc13)C(=O)c1cccnc1C2=O`, the TGI in the assay with HCT-15 colon was 1.29 µM; in the assay on DU-145 prostate it was 1.84 µM; in the assay with CCRF-CEM leukemia it was 5.72 µM; with SF-268 CNS, above 100 µM; with UACC-257 melanoma, 2.91 µM; in the assay on HCC-2998 colon it was 7.55 µM. The TGI in the assay with 786-0 renal amounted to 9.56 µM.

Consider `O=C(CCCCCCCCC(=O)NN1C(=O)/C(=C\c2ccc(O)c(O)c2)SC1c1ccc(Cl)cc1)NN1C(=O)/C(=C\c2ccc(O)c(O)c2)SC1c1ccc(Cl)cc1` (stereo unspecified), for which the TGI with HCT-15 colon was above 100 µM; in the assay with DU-145 prostate, 81.1 µM; in the assay with SF-268 CNS, above 62.7 µM; in the assay on SF-539 CNS, 43.8 µM; with UACC-257 melanoma, above 100 µM; in the assay on HCC-2998 colon, above 100 µM. For the same compound, in the assay on 786-0 renal, the TGI was 34.4 µM.

Consider `Cc1nc2c(sc(=S)n2-c2ccccc2)c2nc3ncccc3n12`, for which the TGI with HCT-15 colon, in the assay on DU-145 prostate, in the assay with CCRF-CEM leukemia, in the assay on SF-268 CNS, with UACC-257 melanoma and in the assay on HCC-2998 colon was above 100 µM each time. The TGI in the assay with 786-0 renal is above 100 µM.

For the compound `COc1ccc(-c2cc(-c3ccco3)c(C#N)c(=S)n2C2OC(COC(C)=O)C(OC(C)=O)C(OC(C)=O)C2OC(C)=O)cc1` (stereo unspecified), the TGI in the assay on HCT-15 colon was above 100 µM; in the assay on DU-145 prostate, 20.3 µM; in the assay with SF-268 CNS, 23.5 µM; in the assay with SF-539 CNS it was 4.56 µM; in the assay with HCC-2998 colon it was 48.4 µM; with 786-0 renal, 10.6 µM.

`CN(C)/N=N/c1nc2c(c(=O)n(C)c(=O)n2C)n1C`: the TGI in the assay on HCT-15 colon, in the assay on DU-145 prostate, in the assay with CCRF-CEM leukemia, with SF-268 CNS, in the assay on UACC-257 melanoma and in the assay on HCC-2998 colon was above 100 µM throughout. Besides, the TGI in the assay with 786-0 renal is above 100 µM.

With `OCC1CCCCCCCCCCC12SCCCS2` (stereo unspecified), the TGI in the assay with HCT-15 colon, in the assay with DU-145 prostate, in the assay with CCRF-CEM leukemia, with SF-268 CNS and in the assay on 786-0 renal was above 100 µM each time.

For `CN1C(=O)C2C(=O)N(Cc3ccccc3)CC(=O)N2c2cccnc21` (stereo unspecified), the TGI with HCT-15 colon, with CCRF-CEM leukemia, with SF-268 CNS, in the assay with SF-539 CNS, in the assay with UACC-257 melanoma and with 786-0 renal was above 100 µM in each case.
